Data on 18 compounds can be found in patent publication US20100135905A1, “ASSESSMENT OF CANCER SUSCEPTIBILITY TO MOLECULAR TARGETED THERAPY BY USE OF RECOMBINANT PEPTIDES” (priority 2004, published 2010).

No end group written: not given here.

The subject of assay [1] is tumor vascular endothelium. Conditions: Geng et al., 2001; Lu et al., 2004; cited from earlier work.
Assay [2] deals with T1, GP-IIb/IIIa receptors on activated platelets (Homo sapiens, UniProt P05106+P08514).
T1 construct: from tissue
The experiment in a line: Clinical gamma camera/SPECT imaging of 99mTc-labeled bibapcitide in irradiated tumors. It is filed as in vivo, patients. As to the method: Ligand Preparation and Administration. Bibapcitide (ACUTECT™, available from Diatide, Inc. of Londonderry, N.H., United States of America) is a synthetic peptide that binds to GP-IIb/IIIa receptors on activated platelets (Hawiger et al., 1989; Hawiger & Timmons, 1992). Bibapcitide was labeled with ^99mTc in accordance with a protocol provided by Diatide Inc.
Reconstituted ^99mTc-labeled bibapcitide was administered to patients at a dose of 100 μg of bibapcitide radiolabeled with 10 mCi of ^99mTc. […] Patients underwent gamma camera imaging prior to irradiation and 24 hours following irradiation.
Following planar image acquisition, those patients showing uptake in irradiated tumors underwent tomographic imaging using SPECT and repeat imaging at 24 hours. Patients showing no uptake on planer images during this 24-hour time frame had no further imaging.
Patients were treated with X-irradiation ranging from 4 to 18 MV photon using external beam linear accelerator at Vanderbilt University. Appropriate blocks, wedges, and bolus to deliver adequate dose to the planned target volume was utilized. The site of irradiation, treatment intent, and normal tissue considerations determined the radiation dosage and volume. When stereotactic radiosurgery was used, the dose was prescribed to the tumor periphery.
Image Analysis. Image acquisition consisted of both planar and single photon emission computed tomography (SPECT) studies. Planar studies were performed on a dual-head gamma camera (Millennium VG-Variable Geometry model available from General Electric Medical Systems of Milwaukee, Wis., United States of America) equipped with low energy high-resolution (LEUR) collimators. This type of collimator represents a compromise between sensitivity (photon counting efficiency) and image resolution. Planar nuclear medicine images were acquired with a 256×256 acquisition matrix (pixel size approximately 0.178 cm/pixel) for 10 minutes. In order to maximize collimator-gamma camera system sensitivity the source-to-detector surface distance was minimized to the extent that patient geometry allows. The spatial distribution of […] within the planar image was measured using region-of-interest (ROI) analysis. Two different size ROIs (5×5 pixel, and 15×15 pixel) was used in both the tumor and surrounding organs and tissues in the patient. The rationale for using ROIs with different dimensions is to be able to quantify image counts while at the same time isolating any possible influence of ROI size on the results. Tumor-to-background ratios were computed as the ratio of average counts in the tumor region divided by average counts in surrounding organs and tissues, each corrected for background. Background counts was determined based on ROI analysis of a separate planar acquisition performed in the absence of a radioactive source.
Three-dimensional nuclear medicine SPECT examinations were performed using the same dual-head gamma camera system. Each SPECT study comprised a 360 scan acquired with a step-and-shoot approach utilizing the following acquisition parameters: three increments between views, a 256×256×64 acquisition matrix, LEUR collimation and 60 seconds per view. […] SPECT tumor-to-background ratios were computed using quantitative ROI techniques identical to the planar studies. […]

The test system of the next assay is LLC and GL261 tumors. The experiment in a line: Conserved motifs within phage peptides recovered by in vivo panning from both tumor models. The arrangement: species or system mice. Conditions: for Frequency of Recovery of conserved sequence: share of phage peptides recovered from irradiated tumors that contain the sequence. As to the method: (§1) For in vivo panning, tumors were irradiated with 3 Gy and approximately 10^10 phage (prepared as described in Example 1) were administered by tail vein injection into each of the tumor bearing mice at 4 hours following irradiation. Tumors were recovered at one hour following injection and amplified in BL21 bacteria. Amplified phage were pooled and re-administered to a tumor-bearing mouse following tumor irradiation. The phage pool was sequentially administered to a total of 6 animals. As a control, wild type phage lacking synthetic peptide inserts were identically administered to a second experimental group of animals.
(§2) Following six rounds of in vivo panning, fifty recombinant phage peptides that bound within irradiated tumors were randomly selected for further analysis. The nucleic acid sequence encoding recombinant phage was amplified by PCR using primers set forth as SEQ ID NOs: 20-21 (available from Novagen Brand, a unit of EMD Biosciences, Inc., Madison, Wis.). An individual phage suspension was used as template. Amplified peptides were sequenced using an ABI PRISM® 377 sequencer (Applied Biosystems of Foster City, Calif., United States of America).
The amino acid sequences of all phage that were recovered from both tumors were studied in order to identify homologous sequences (Table 2). The most commonly recovered phage peptide had amino acid sequence HVGGSSV (SEQ ID NO: 1), and the second most common sequence was […] (SEQ ID NO: 2). The probability of recovering these peptide sequences from both tumor subtypes is 625/10^14 for each of the peptide sequences. The peptide sequence GSSV (SEQ ID NO: 9) was present in 58% of the phage recovered from tumors. Homology between peptides recovered from LLC and GL261 included 100% homology in […] (SEQ ID NO: 2) and 70% homology in RGSGSRV (SEQ ID NO.: 12). Of interest is a 6 amino acid homology spanning over 8 amino acids that include amino acids SXRGXGS (SEQ ID NO: 13), which was recovered from 28% of all phage in 2 tumor models (p<0.0001). The probability of having six identical amino acids by chance is 6^−24.

The subject of assay [3] is responding tumor blood vessels. The experiment in a line: Biotinylated peptide binding in tumor blood vessels, FITC-avidin fluorescent microscopy. It is filed as in vivo, mice. As to the method: The amino acid sequence RGXGSXV (SEQ ID NO: 18) was found in 41% of phage recovered from treated LLC tumors. To determine the pattern of RGDGSSV (SEQ ID NO: 10) peptide binding within responding tumor blood vessels, biotinylated peptide was administered by tail vein injection. Tumors were implanted into both hind limbs of mice. The right tumor was irradiated according to Example 2, and the left served as an untreated internal negative control. Biotinylated peptide was administered by tail vein injection immediately prior to tumor irradiation.

The test system of the next assay is LLC tumors. Nature of the assay: In vivo panning of T7 phage peptide library: phage recovered from irradiated LLC tumors. Also on record: species or system mice. As to the method: (§3) GL261 murine glioma cells and Lewis lung carcinoma (LLC) cells were implanted into the hind limb of C57BL/6 mice (see Hallahan et al., 1995b; Hallahan et al., 1998; Hallahan & Virudachalam, 1999).
as §1
(§4) To determine the titer of phage binding in a tumor or in normal tissue, recovered phage were amplified in BL21 bacteria. Bacteria were plated and the number of plaques present was counted. To determine the total phage output per organ, the number of plaque forming units (PFU) on each plate was divided by the volume of phage plated and the weight of each organ. Normal variation was observed as a 2-fold difference in PFU. In the present Example, background binding within tumor blood vessels was approximately 10^4 phage. Phage that bound to the vasculature within irradiated tumors show enrichment in the tumor relative to other organs and enrichment in the irradiated tumor relative to the control phage without DNA insert.
as §2

For another assay, the system named is GL261 tumors. Nature of the assay: In vivo panning of T7 phage peptide library: phage recovered from irradiated GL261 tumors. Conditions: Experiment A, 3 Gy; for Phage Recovered from GL261 tumors: number of sequenced phage after six rounds; for Phage Recovered from GL261 tumors (Frequency): six rounds. Also on record: species or system mice. As to the method: as §3, §1, §4, §2

For assay [4], the system named is B16F0 melanoma, lung carcinoma and glioma tumor models. The experiment in a line: Binding of phage-encoded peptides in additional tumor models. It counts as in vivo. The settings on record: phage encoding the peptide. An excerpt:
The binding properties of phage encoding HVGGSSV (SEQ ID NO: 1), […] (SEQ ID NO: 2), […] (SEQ ID NO: 3), and SVGSRV (SEQ ID NO: 4) were additionally characterized in a B16F0 melanoma model.

[5] abbreviates: Experiment B, number of sequenced phage.
[6] abbreviates: Experiment A, number of sequenced phage after six rounds, 3 Gy.

T1 sequence (P08514 32-887 limits assumed): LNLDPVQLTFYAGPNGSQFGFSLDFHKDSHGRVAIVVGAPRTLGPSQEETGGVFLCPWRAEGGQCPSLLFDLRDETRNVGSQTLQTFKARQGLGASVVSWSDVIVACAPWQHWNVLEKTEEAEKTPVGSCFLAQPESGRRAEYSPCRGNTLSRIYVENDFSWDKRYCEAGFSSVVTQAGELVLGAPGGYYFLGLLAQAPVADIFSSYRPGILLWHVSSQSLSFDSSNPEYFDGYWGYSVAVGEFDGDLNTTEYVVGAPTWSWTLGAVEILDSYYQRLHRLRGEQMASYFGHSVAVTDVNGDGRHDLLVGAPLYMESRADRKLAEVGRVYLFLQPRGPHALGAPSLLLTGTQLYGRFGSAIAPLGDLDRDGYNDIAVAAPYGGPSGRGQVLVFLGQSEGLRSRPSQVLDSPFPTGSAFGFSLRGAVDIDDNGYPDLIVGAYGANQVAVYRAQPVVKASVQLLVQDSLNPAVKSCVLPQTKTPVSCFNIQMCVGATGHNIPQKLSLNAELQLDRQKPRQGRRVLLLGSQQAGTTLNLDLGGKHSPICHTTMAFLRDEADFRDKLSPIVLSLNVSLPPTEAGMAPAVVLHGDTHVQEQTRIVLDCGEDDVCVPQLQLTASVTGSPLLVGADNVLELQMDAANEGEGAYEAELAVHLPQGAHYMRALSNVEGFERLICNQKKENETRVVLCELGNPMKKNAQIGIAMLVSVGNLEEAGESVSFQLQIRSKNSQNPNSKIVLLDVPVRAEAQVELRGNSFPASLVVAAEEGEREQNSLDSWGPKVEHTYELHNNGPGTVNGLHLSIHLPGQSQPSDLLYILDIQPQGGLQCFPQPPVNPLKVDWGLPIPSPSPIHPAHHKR
T1 sequence (P08514 891-1039 partner limits assumed): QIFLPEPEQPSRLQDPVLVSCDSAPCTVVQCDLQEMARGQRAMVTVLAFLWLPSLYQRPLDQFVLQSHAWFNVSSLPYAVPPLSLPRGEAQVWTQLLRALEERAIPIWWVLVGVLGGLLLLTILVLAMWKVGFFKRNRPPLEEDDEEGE
T1 sequence (P05106 27-788): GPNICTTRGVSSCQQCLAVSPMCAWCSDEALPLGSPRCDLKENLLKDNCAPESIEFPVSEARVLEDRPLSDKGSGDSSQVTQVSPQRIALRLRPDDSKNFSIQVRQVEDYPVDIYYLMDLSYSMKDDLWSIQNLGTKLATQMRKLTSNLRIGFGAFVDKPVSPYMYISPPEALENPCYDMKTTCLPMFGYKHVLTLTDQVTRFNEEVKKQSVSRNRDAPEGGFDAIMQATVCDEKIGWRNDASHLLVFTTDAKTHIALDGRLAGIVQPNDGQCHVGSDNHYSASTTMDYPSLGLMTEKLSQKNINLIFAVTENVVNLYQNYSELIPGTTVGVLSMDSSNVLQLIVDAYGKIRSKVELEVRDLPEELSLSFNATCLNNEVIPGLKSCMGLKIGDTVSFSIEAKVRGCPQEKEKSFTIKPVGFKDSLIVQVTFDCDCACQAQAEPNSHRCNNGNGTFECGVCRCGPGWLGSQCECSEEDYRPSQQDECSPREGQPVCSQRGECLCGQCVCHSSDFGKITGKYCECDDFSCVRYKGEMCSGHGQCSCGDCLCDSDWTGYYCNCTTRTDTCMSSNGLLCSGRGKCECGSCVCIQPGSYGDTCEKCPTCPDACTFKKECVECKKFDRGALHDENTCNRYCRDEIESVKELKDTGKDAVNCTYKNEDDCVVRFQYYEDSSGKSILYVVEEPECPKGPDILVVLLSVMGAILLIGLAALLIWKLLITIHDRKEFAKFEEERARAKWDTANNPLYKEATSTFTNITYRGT

With `Cc1cc(C)c(/C=C2\C(=O)Nc3ccccc32)[nH]1` [SU5416], the “Apoptosis within tumor vascular endothelium” value in assay [1] is reported as “induced apoptosis within tumor vascular endothelium”.

For `Cc1[nH]c(/C=C2\C(=O)Nc3ccccc32)c(C)c1CCC(=O)O` [SU6668], the “Apoptosis within tumor vascular endothelium” value in assay [1] is on record as “induced apoptosis within tumor vascular endothelium”.

Turning to “Bibapcitide [^99mTc-labeled bibapcitide]”, in assay [2] (administered immediately prior to radiation, 10 Gy or more), the Tumor binding was 4 of 4. Besides, in assay [2] (administered within one hour following radiation), the Localization to tumor entry is reported as “failed to show localization”. In addition, in assay [2] (clinical study, general finding), the Specificity of binding result is “non-specific binding”. Besides, the “Binding to responding tumors in dose de-escalation study” value in assay [2] (radiation dose reduced to 5 Gy) is “not sufficient”. Besides, the “Binding in second neoplasms not treated with radiation” value in assay [2] (two patients, non-responding tumors) is “not observed”.

Take “GSRV (conserved subsequence) [conserved motif within peptides identified by in vivo panning]”: the “Frequency of Recovery of conserved sequence” value with LLC and GL261 tumors came to 6%.

With “GSSV (conserved subsequence) [conserved motif within peptides identified by in vivo panning]”, in the assay on LLC and GL261 tumors (phage with peptide insert comprising the subsequence, no phage with wild type), the “Phage recovered from irradiated tumors” value is listed as 22-40 of 10^6 injected phage. In the assay with LLC and GL261 tumors, the “Frequency of Recovery of conserved sequence” value stood at 58%.

Turning to “GSXV [conserved motif within peptides identified by in vivo panning]”, the “Frequency of Recovery of conserved sequence” value with LLC and GL261 tumors is given as 80%.

Regarding “NSV (conserved sequence) [N-terminal NSV, conserved N-terminal motif, N encoded by the vector]”, in the assay on LLC and GL261 tumors, the “Frequency of Recovery of conserved sequence” value stood at 22%.

Regarding “NSXR [N-terminal NSXR, conserved N-terminal motif, N encoded by the vector]”, the “Frequency of Recovery of conserved sequence” value in the assay with LLC and GL261 tumors came to 39%.

Turning to “NXVG [N-terminal NXVG, conserved N-terminal motif, N encoded by the vector]”, in the assay with LLC and GL261 tumors, the “Frequency of Recovery of conserved sequence” value worked out at 34%.

For “RGDGSSV (also: biotin, site not given here) [tested as biotinylated peptide]”, the “Peptide binding in irradiated (responding) tumor” value in assay [3] (biotinylated peptide by tail vein immediately prior to irradiation, right tumor irradiated) is “accumulation throughout the lumen of responding tumors”. Besides, the “Peptide binding in untreated control tumor” value in assay [3] (biotinylated peptide by tail vein, left tumor untreated internal control) was “near absence of binding”. In the assay with LLC and GL261 tumors, the “Frequency of Recovery of conserved sequence” value was found to be 28%.

As to “RGXGSXV [conserved motif in phage recovered from treated LLC tumors]”, the “Frequency of sequence in phage recovered from treated LLC tumors” value in the assay with LLC tumors (treated LLC tumors) turned out to be 41%.

As to “SGRKVGSGSSV (Peptide that binds to LLC and/or GL261 tumors) [peptide isolated by in vivo panning of a phage library]”, the “Phage Recovered from LLC tumors (Frequency)” value with LLC tumors (Experiment B) is listed as “(50%)”. The “Phage Recovered from LLC tumors” value in the assay with LLC tumors (setting [5]) came out at 7.

Consider “SKEK (Peptide that binds to LLC and/or GL261 tumors) [peptide isolated by in vivo panning of a phage library]”, for which the “Phage Recovered from LLC tumors (Frequency)” value with LLC tumors (Experiment B) is on record as “(7%)”. Also, in the assay on LLC tumors (setting [5]), the “Phage Recovered from LLC tumors” value came to 1.

On to “SRKQGGTEV (Peptide that binds to LLC and/or GL261 tumors) [peptide isolated by in vivo panning of a phage library]”, for which the “Phage Recovered from LLC tumors (Frequency)” value in the assay with LLC tumors (Experiment B) was “(7%)”. In addition, in the assay on LLC tumors (setting [5]), the “Phage Recovered from LLC tumors” value was 1.

“SVGSRV (Peptide that binds to LLC and/or GL261 tumors) [peptide isolated by in vivo panning of a phage library]”: in the assay with GL261 tumors, the “Phage Recovered from GL261 tumors” value turned out to be 3 and the “Phage Recovered from GL261 tumors (Frequency)” value was “(12%)”. Further, in assay [4], the “Tumor models within which the phage-encoded peptide bound” value is “bound within lung carcinoma and glioma”. Also, the “Phage Recovered from LLC tumors” value with LLC tumors (setting [6]) was 1. In the assay with LLC tumors (Experiment A, six rounds, 3 Gy), the “Phage Recovered from LLC tumors (Frequency)” value was “(4%)”.

For “SVRGSGSGV (Peptide that binds to LLC and/or GL261 tumors) [peptide isolated by in vivo panning of a phage library]”, in the assay on GL261 tumors, the “Phage Recovered from GL261 tumors” value amounted to 0 and the “Phage Recovered from GL261 tumors (Frequency)” value is reported as “(0%)”. The “Tumor models within which the phage-encoded peptide bound” value in assay [4] is “bound within glioma and melanoma”. In the assay on LLC tumors (setting [6]), the “Phage Recovered from LLC tumors” value was found to be 7. For the same compound, the “Phage Recovered from LLC tumors (Frequency)” value in the assay with LLC tumors (Experiment A, six rounds, 3 Gy) is recorded as “(28%)”.

With “SVVRDGSEV (Peptide that binds to LLC and/or GL261 tumors) [peptide isolated by in vivo panning of a phage library]”, the “Phage Recovered from LLC tumors (Frequency)” value with LLC tumors (Experiment B) is “(21%)”. The “Phage Recovered from LLC tumors” value in the assay with LLC tumors (setting [5]) was determined as 3.

On to “SXRGXGS [conserved motif within peptides identified by in vivo panning]”, for which the “Frequency of Recovery of conserved sequence” value with LLC and GL261 tumors is recorded as 28%.
